From US6482855B2, “Diamine alkylene diacetic or triacetic acid derivatives, preparation method, use in cosmetic and pharmaceutical compositions and compositions containing them” (L'Oreal S.A., priority 1997, dated 2002) come the findings set out here.

One data set deals with V79 cells. Briefly: Protection of V79 cells against the toxicity of H2O2 (neutral red technique). Format: cell-based. As to conditions: for IC50: Cricetulus griseus, 1 hour contact with compound, then 30 μM H2O2 for one hour, cell number after 72 hours by neutral red, read-out: Result (concentration inducing 50% protection), IC50. The method, then: The activity of the compounds was evaluated by their ability to protect V79 cells against the toxicity of H2O2, a technique conventionally used to evaluate the effectiveness of antioxidants or iron-chelating agents.
V79 cells were subcultured in DMEM (Dulbecco Modified Essential Medium) medium supplemented with 10% of foetal calf serum, streptomycin, penicillin and glutamine at 37° C. under an atmosphere of 95% air+5% CO2.
The cells were subsequently seeded at a density of 5×10^3/ml in 96-well plates.
After 24 hours, the cells were rinsed and then incubated with the test compounds at different concentrations.
After a contact time of 1 hour, 30 μM of H2O2 were added and incubated at 37° C. for a further one hour.
The cells were subsequently rinsed and then again brought into contact with the supplemented medium described above.
After 72 hours, the number of cells was evaluated in each well by using the neutral red technique.
The protective effect is assessed by the IC50, which measures the concentration which induces 50% protection against cytotoxicity in comparison with the wells treated only with H2O2.

Data set [1] is described as follows: Solubility limit noted in the V79 protection test. It counts as physicochemical. The conditions noted are these: beyond 1 mM.

Where a name gives a salt, the structure may show the parent alone.

Take `COC(=O)CN(CCN(CC(=O)OC)Cc1cc(OC)c(OC)c(OC)c1)Cc1cc(OC)c(OC)c(OC)c1` [Comparative 2]: the IC50 in the data set on V79 cells is more than 1000 µM. Also, the “solubility of compound in the test” value in data set [1] was “insoluble beyond this point)”.

Turning to `COc1cc(CN(CCN(CC(=O)OCOC(C)=O)Cc2cc(OC)c(OC)c(OC)c2)CC(=O)OCOC(C)=O)cc(OC)c1OC` [Example 1, bis(acetoxymethyl) [N,N′-bis(3,4,5-trimethoxybenzyl)]-ethylenediamine-N,N′-diacetate], in the data set with V79 cells, the IC50 amounted to 10 µM. In the case of `COc1cc(CN(CCN(CC(=O)O)Cc2cc(OC)c(OC)c(OC)c2)CC(=O)O)cc(OC)c1OC` [Comparative 1, the dihydrochloride of N,N′-bis(3,4,5-trimethoxybenzyl)ethylenediamine-N,N′-diacetic acid], the “protection against H2O2 cytotoxicity” value in the data set with V79 cells (compound at 10 mM, 30 μM H2O2) is on record as 25% protection only at 10 mM.
